Results from patent US9409892B2, “4-hydroxy-isoquinoline compounds as HIF hydroxylase inhibitors” (FIBROGEN, INC., priority 2012, dated 2016).
“And” between values parts separate entries of the source, which are not always exact repeats. Equal values may be shown once. Read-outs that look alike come from different tables or passages of the source.

Key:
[1] = molecular target: PHD1 (EGLN2) (Homo sapiens (Human), UniProt Q96KS0); assay: HIF-PH assay (14CO2 capture), PHD1 enzyme inhibition; assay type: biochemical; settings: Table 1; for PHD2/PHD1: ratio of the IC50 of the compound for each enzyme
[2] = molecular target: PHD2 (EGLN1) (Homo sapiens (Human), UniProt Q9GZT9); assay: HIF-PH assay (14CO2 capture), PHD2 enzyme inhibition; assay type: biochemical; settings: Table 1
[3] = individual measurement, read-out: IC50 (μM) PHD1
[4] = individual measurement, read-out: IC50 (μM) PHD2

PHD1 (EGLN2), sequence (Q96KS0 whole entry): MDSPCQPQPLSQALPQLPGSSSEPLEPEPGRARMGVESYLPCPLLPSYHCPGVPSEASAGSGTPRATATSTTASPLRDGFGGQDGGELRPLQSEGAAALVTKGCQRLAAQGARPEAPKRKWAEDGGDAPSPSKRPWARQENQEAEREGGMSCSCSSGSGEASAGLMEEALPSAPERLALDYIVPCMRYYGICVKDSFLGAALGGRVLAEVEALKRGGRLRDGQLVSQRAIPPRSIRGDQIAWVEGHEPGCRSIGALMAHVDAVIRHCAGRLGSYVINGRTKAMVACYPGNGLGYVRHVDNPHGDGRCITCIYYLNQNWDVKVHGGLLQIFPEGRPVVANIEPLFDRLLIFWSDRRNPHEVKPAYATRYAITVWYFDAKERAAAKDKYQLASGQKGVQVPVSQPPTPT
PHD2 (EGLN1), sequence (Q9GZT9 whole entry): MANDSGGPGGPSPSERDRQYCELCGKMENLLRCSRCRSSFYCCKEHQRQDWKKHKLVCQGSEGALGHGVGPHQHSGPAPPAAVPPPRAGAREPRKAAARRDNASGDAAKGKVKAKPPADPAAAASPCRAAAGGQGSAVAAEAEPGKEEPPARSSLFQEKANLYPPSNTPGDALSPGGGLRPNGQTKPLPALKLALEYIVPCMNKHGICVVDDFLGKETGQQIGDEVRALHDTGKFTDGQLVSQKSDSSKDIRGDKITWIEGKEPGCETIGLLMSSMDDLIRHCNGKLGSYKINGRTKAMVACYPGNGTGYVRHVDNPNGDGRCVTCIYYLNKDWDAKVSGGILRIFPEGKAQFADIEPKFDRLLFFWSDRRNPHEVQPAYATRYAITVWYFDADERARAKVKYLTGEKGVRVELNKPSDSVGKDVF

SMILES	IC50 [1, 3]	PHD2/PHD1 [1]	IC50 [2, 4]	IC50 ([1]; average of multiple independent measurements, read-out: IC50 (μM) PHD1 avg.) [µM]	PHD2/PHD1 avg. ([1]; average of the ratios of multiple independent measurements) [avg]	IC50 ([2]; average of multiple independent measurements, read-out: IC50 (μM) PHD2 avg.) [µM]
CC(C)(CNC(=O)c1nc(C#N)c2cc(Oc3c(F)cccc3F)ccc2c1O)C(=O)O [Compound 22, 3-{[1-Cyano-7-(2,6-difluoro-phenoxy)-4-hydroxy-isoquinoline-3-carbonyl]-amino}-2,2-dimethyl-propionic acid]	0.93 µM	16	15.1 µM	–	–	–
O=C(O)CCCCNC(=O)c1ncc2cc(Sc3ccccc3)ccc2c1O [Compound 114, 5-[(4-Hydroxy-7-phenylsulfanyl-isoquinoline-3-carbonyl)-amino]-pentanoic acid]	13.5 µM	6	86.6 µM	–	–	–
N#Cc1nc(C(=O)NCCC(=O)C(=O)O)c(O)c2ccc(Oc3ccccc3)cc12 [Compound 56, 4-(1-Cyano-4-hydroxy-7-phenoxyisoquinoline-3-carboxamido)-2-oxobutanoic acid]	0.26 µM	7	1.8 µM	–	–	–
N#Cc1nc(C(=O)NCC2(C(=O)O)CCC2)c(O)c2ccc(Oc3cccnc3)cc12 [Compound 28, 1-({[1-Cyano-4-hydroxy-7-(pyridin-3-yloxy)-isoquinoline-3-carbonyl]-amino}-methyl)-cyclobutanecarboxylic acid]	1.3 µM	5	7.15 µM	–	–	–
N#Cc1nc(C(=O)NCC[C@@H](N)C(=O)O)c(O)c2ccc(Oc3ccccc3)cc12 [Compound 50, (R)-2-Amino-4-(1-cyano-4-hydroxy-7-phenoxyisoquinoline-3-carboxamido)butanoic acid]	5.19 µM	9	45.4 µM	–	–	–
N#Cc1nc(C(=O)NC[C@H](NC(=O)OCc2ccccc2)C(=O)O)c(O)c2ccc(Oc3ccccc3)cc12 [Compound 87, 2-(S)-Benzyloxycarbonylamino-3-[(1-cyano-4-hydroxy-7-phenoxy-isoquinoline-3-carbonyl)-amino]-propionic acid]	3.56 µM	8	27.5 µM	–	–	–
N#Cc1nc(C(=O)NCCCCC(=O)O)c(O)c2ccc(Oc3ccc(F)cc3Cl)cc12 [Compound 98, 5-{[7-(2-Chloro-4-fluoro-phenoxy)-1-cyano-4-hydroxy-isoquinoline-3-carbonyl]-amino}-pentanoic acid]	0.27 µM	14	3.73 µM	–	–	–
COc1ccc(Oc2ccc3c(O)c(C(=O)NCC(C)(C)C(=O)O)ncc3c2)cc1 [Compound 104, 3-{[4-Hydroxy-7-(4-methoxy-phenoxy)-isoquinoline-3-carbonyl]-amino}-2,2-dimethyl-propionic acid]	3.3 µM	6	19.5 µM	–	–	–
CCCC(CNC(=O)c1nc(C#N)c2cc(Oc3ccccc3)ccc2c1O)C(=O)O (centres unmarked) [Compound 17, 2-{[(1-Cyano-4-hydroxy-7-phenoxy-isoquinoline-3-carbonyl)-amino]-methyl}-pentanoic acid]	3.39 µM	14	47.9 µM	–	–	–
CC[C@H](CC(=O)O)NC(=O)c1nc(C#N)c2cc(Oc3ccccc3)ccc2c1O [Compound 63, 3-(R)-[(1-Cyano-4-hydroxy-7-phenoxy-isoquinoline-3-carbonyl)-amino]-pentanoic acid]	2.82 µM	10	26.9 µM	–	–	–
COc1ccc(Oc2ccc3c(O)c(C(=O)NC[C@H](O)C(=O)O)ncc3c2)cc1 [Compound 103, 2-(S)-Hydroxy-3-{[4-hydroxy-7-(4-methoxy-phenoxy)-isoquinoline-3-carbonyl]-amino}-propionic acid]	0.79 µM	6	4.78 µM	–	–	–
O=C(O)CCCNC(=O)c1ncc2ccc(Oc3ccccc3)cc2c1O [Compound 113, 4-[(4-Hydroxy-6-phenoxy-isoquinoline-3-carbonyl)-amino]-butyric acid]	21.2 µM	9	200 µM	–	–	–
C[C@H](C(=O)O)[C@@H](C)NC(=O)c1nc(C#N)c2cc(Oc3ccccc3)ccc2c1O [Compound 70, (2S,3R)-3-[(1-Cyano-4-hydroxy-7-phenoxy-isoquinoline-3-carbonyl)-amino]-2-methyl-butyric acid]	1.86 µM	35	65.8 µM	–	–	–
C[C@@H](CC(=O)O)NC(=O)c1nc(C#N)c2cc(Oc3ccccc3)ccc2c1O [Compound 78, 3-(S)-[(1-Cyano-4-hydroxy-7-phenoxy-isoquinoline-3-carbonyl)-amino]-butyric acid]	3.27 µM	30	96.8 µM	–	–	–
COc1ccccc1Oc1ccc2c(O)c(C(=O)NCC(C)(C)C(=O)O)nc(C#N)c2c1 [Compound 60, 3{-[1-Cyano-4-hydroxy-7-(2-methoxy-phenoxy)-isoquinoline-3-carbonyl]-amino}-2,2-dimethyl-propionic acid]	1 µM and 1.08 µM	–	3.65 µM and 10.8 µM	1.04	6.8	7.23
N#Cc1nc(C(=O)NCC[C@@H](NC(N)=O)C(=O)O)c(O)c2ccc(Oc3ccccc3)cc12 [Compound 55, (R)-4-(1-Cyano-4-hydroxy-7-phenoxyisoquinoline-3-carboxamido)-2-ureidobutanoic acid]	1.1 µM	8	9.1 µM	–	–	–
O=C(O)CCNC(=O)c1ncc2cc(NC(=O)Nc3ccccc3)ccc2c1O [Compound 116, 3-{[4-Hydroxy-7-(3-phenyl-ureido)-isoquinoline-3-carbonyl]-amino}-propionic acid]	3.34 µM	9	29.2 µM	–	–	–
N#Cc1nc(C(=O)NC[C@@H](O)CC(=O)O)c(O)c2ccc(Oc3ccccc3)cc12 [Compound 35, (S)-4-(1-Cyano-4-hydroxy-7-phenoxyisoquinoline-3-carboxamido)-3-hydroxybutanoic acid]	0.23 µM	12	2.83 µM	–	–	–
CO[C@@H](CCNC(=O)c1nc(C#N)c2cc(Oc3ccccc3)ccc2c1O)C(=O)O [Compound 94, 4-[(1-Cyano-4-hydroxy-7-phenoxy-isoquinoline-3-carbonyl)-amino]-2-(S)-methoxy-butyric acid]	0.31 µM	7	2.18 µM	–	–	–
CC(C)(CNC(=O)c1nc(C#N)c2cc(Oc3cccc(Cl)c3)ccc2c1O)C(=O)O [Compound 39, 3-{[7-(3-Chloro-phenoxy)-1-cyano-4-hydroxy-isoquinoline-3-carbonyl]-amino}-2,2-dimethyl-propionic acid]	0.18 µM	11	1.97 µM	–	–	–
Cc1cccc(C)c1Oc1ccc2c(C#N)nc(C(=O)NCCC(=O)O)c(O)c2c1 [Compound 109, 3{-[1-Cyano-6-(2,6-dimethyl-phenoxy)-4-hydroxy-isoquinoline-3-carbonyl]-amino}-propionic acid]	6.4 µM	5	30.4 µM	–	–	–

Further lines, results first:

IC50 [1, 3]	PHD2/PHD1 [1]	IC50 [2, 4]	IC50 ([1]; average of multiple independent measurements, read-out: IC50 (μM) PHD1 avg.) [µM]	PHD2/PHD1 avg. ([1]; average of the ratios of multiple independent measurements) [avg]	IC50 ([2]; average of multiple independent measurements, read-out: IC50 (μM) PHD2 avg.) [µM]	SMILES
26.6 µM	6	153 µM	–	–	–	O=C(NCC(C(=O)O)c1ccccc1)c1ncc2cc(Oc3ccccc3)ccc2c1O (centres unmarked) [Compound 169, 3-[(4-Hydroxy-7-phenoxy-isoquinoline-3-carbonyl)-amino]-2-phenyl-propionic acid]
11.1 µM	8	88.4 µM	–	–	–	CC(C)(CNC(=O)c1nc(-c2ccccc2)c2cc(Oc3ccccc3)ccc2c1O)C(=O)O [Compound 143, 3-[(4-Hydroxy-7-phenoxy-1-phenyl-isoquinoline-3-carbonyl)-amino]-2,2-dimethyl-propionic acid]
0.61 µM	6	3.67 µM	–	–	–	N#Cc1nc(C(=O)NCCC(=O)O)c(O)c2ccc(-c3ccccc3)cc12 [Compound 137, 3-[(1-Cyano-4-hydroxy-7-phenyl-isoquinoline-3-carbonyl)-amino]-propionic acid]
2.35 µM	10	24.1 µM	–	–	–	CC(C)(CNC(=O)c1nc(C#N)c2cc(NC(=O)NCc3ccccc3)ccc2c1O)C(=O)O [Compound 162, 3-{[7-(3-Benzyl-ureido)-1-cyano-4-hydroxy-isoquinoline-3-carbonyl]-amino}-2,2-dimethyl-propionic acid]
1.66 µM	13	21 µM	–	–	–	N#Cc1c2cc(Oc3ccccc3)ccc2c(O)c(C(=O)NCCCC(=O)O)[n+]1[O-] [Compound 158, 3-(3-Carboxypropylcarbamoyl)-1-cyano-4-hydroxy-7-phenoxyisoquinoline 2-oxide]
6.75 µM	6	39.4 µM	–	–	–	N#Cc1nc(C(=O)NC(CC(=O)O)c2cccnc2)c(O)c2ccc(Oc3ccccc3)cc12 (centres unmarked) [Compound 174, 3-[(1-Cyano-4-hydroxy-7-phenoxy-isoquinoline-3-carbonyl)-amino]-3-pyridin-3-yl-propionic acid]
2.81 µM	12	33.5 µM	–	–	–	CC(C)(CNC(=O)c1nc(C#N)c2cc(NC(=O)Nc3ccccc3)ccc2c1O)C(=O)O [Compound 140, 3{-[1-Cyano-4-hydroxy-7-(3-phenyl-ureido)-isoquinoline-3-carbonyl]-amino}-2,2-dimethyl-propionic acid]
3.16 µM	25	77.6 µM	–	–	–	O=C(O)CCCNC(=O)c1ncc2cc(NC(=O)NC3CCCCC3)ccc2c1O [Compound 131, 4-{[7-(3-Cyclohexyl-ureido)-4-hydroxy-isoquinoline-3-carbonyl]-amino}-butyric acid]
0.35 µM	8	2.88 µM	–	–	–	O=C(O)CCNC(=O)c1ncc2cc(S(=O)(=O)C3CCCCC3)ccc2c1O [Compound 135, 3-[(7-Cyclohexanesulfonyl-4-hydroxy-isoquinoline-3-carbonyl)-amino]-propionic acid]
2.83 µM	10	27.6 µM	–	–	–	N#Cc1ccc([C@H](CC(=O)O)NC(=O)c2nc(C#N)c3cc(Oc4ccccc4)ccc3c2O)cc1 [Compound 172, 3-(S)-[(1-Cyano-4-hydroxy-7-phenoxy-isoquinoline-3-carbonyl)-amino]-3-(4-cyano-phenyl)-propionic acid]
